Experiment: Comparative accelerated storage study of ASA at 45° C. for 3 weeks (HPLC)
Assay type: physicochemical
Details: in distilled water, 143 mg ASA in 8 oz
Experimental: Accelerated storage studies were conducted to examine the stability of ASA in distilled water, ASA in acidified (1% citric acid) distilled water, and of a molecular inclusion complex of ASA-βCD (in distilled water). Duplicate samples of each treatment were made containing 143 mg of ASA in 8 oz of distilled water. For the treatment containing the ASA-βCD complex, a 2:1 ratio of βCD to ASA was used as described in part I of the prototype formulation procedure outlined above. The treatments were stored at 45° C. for 3 weeks to determine the rate of hydrolysis of ASA to its breakdown product salicylic acid. Analysis of degradation products was performed using an Agilent Technologies 1200 series HPLC with a PDA (photodiode array) detector, incorporating a Phenominex C18-2 column (25 cm×0.39 cm i.d., 5 μm particle size). Solvent system A) H2O, Acetonitrile, Phosphoric Acid (95.45:4.5:0.05), and B) H2O, Acetonitrile, Phosphoric Acid (49.95:50:0.05). Solvent B ramped from 10%-80% over 20 minutes. Stability was verified using peak area, which was used to determine the overall percentage of breakdown of ASA to salicylic acid. […] The sensory profile of the βCD-ASA solution was evaluated.

## CC(=O)Oc1ccccc1C(=O)O [ASA, acetylsalicylic acid]
  breakdown of ASA to salicylic acid: nearly quantitative breakdown

Reference: patent publication US9789191B2, “Aqueous drug delivery system” (SOLIXA TECHNOLOGIES, INC., priority 2010, dated 2017)
